Results reported in the NIST ThermoML archive (doi:10.1021/je1012235).

Conditions: 101.33 kPa, Liquid; for mass density: Vibrating tube method

CCCCCCCCCCCCCCCCCCCCCCCC(=O)OC [methyl tetracosanoate]
Conditions	mass density [kg/m3]	viscosity [mPa·s]
338.15 K	830.5	5.139
343.15 K	827.1	4.628
348.15 K	823.7	4.189
353.15 K	820.3	3.81
358.15 K	816.9	3.48
363.15 K	813.5	3.19
368.15 K	810.1	2.933
373.15 K	806.8	2.707

CC/C=C\C/C=C\C/C=C\CCCCCCCC(=O)OC [methyl (Z,Z,Z)-9,12,15-octadecatrienoate]
Conditions	mass density [kg/m3]	viscosity [mPa·s]
278.15 K	913.2	6.361
283.15 K	909.5	5.618
288.15 K	905.7	5.003
293.15 K	901.9	4.484
298.15 K	898.2	4.043
303.15 K	894.5	3.667
308.15 K	890.7	3.341
313.15 K	887	2.925
318.15 K	883.3	2.675
323.15 K	879.6	2.472
328.15 K	876	2.303
333.15 K	872.3	2.123
338.15 K	868.6	1.966
343.15 K	864.9	1.817
348.15 K	861.2	1.688
353.15 K	857.6	1.583
358.15 K	853.9	1.488
363.15 K	850.3	1.402
368.15 K	–	1.327
373.15 K	–	1.253

CCCCC/C=C\C/C=C\CCCCCCCC(=O)OCC [ethyl linoleate]
Conditions	mass density [kg/m3]	viscosity [mPa·s]
278.15 K	893.8	8.188
283.15 K	890	7.084
288.15 K	886.3	6.165
293.15 K	882.6	5.423
298.15 K	878.8	4.807
303.15 K	875.2	4.307
308.15 K	871.5	3.854
313.15 K	867.8	3.406
318.15 K	864.2	3.161
323.15 K	860.6	2.829
328.15 K	856.9	2.641
333.15 K	853.3	2.429
338.15 K	849.7	2.241
343.15 K	846	2.075
348.15 K	842.4	1.927
353.15 K	838.8	1.773
358.15 K	835.2	1.676
363.15 K	831.6	1.569

CCCCCCCCCCCCCCCCCCCCCC(=O)OC [methyl docosanoate]
Conditions	mass density [kg/m3]	viscosity [mPa·s]
333.15 K	834.5	4.749
338.15 K	831	4.274
343.15 K	827.5	3.866
348.15 K	824.1	3.513
353.15 K	820.6	3.207
358.15 K	817.2	2.939
363.15 K	813.7	2.709
368.15 K	810.3	2.502
373.15 K	806.9	2.317

CCCCCCCC/C=C\CCCCCCCCCCCC(=O)OC [methyl (Z)-13-docosenoate]
Conditions	mass density [kg/m3]	viscosity [mPa·s]
278.15 K	881.6	18.09
283.15 K	877.9	14.94
288.15 K	874.3	12.56
293.15 K	870.7	10.66
298.15 K	867.1	9.141
303.15 K	863.6	7.907
308.15 K	860	6.917
313.15 K	856.5	5.958
318.15 K	853	5.402
323.15 K	849.4	4.76
328.15 K	845.9	4.331
333.15 K	842.4	3.91
338.15 K	839	3.548
343.15 K	835.5	3.234
348.15 K	832	2.961
353.15 K	828.6	2.707
358.15 K	825.1	2.51
363.15 K	821.7	2.322

CCCCCCCC/C=C\CCCCCCCCCC(=O)OC [methyl cis-11-eicosenoate]
Conditions	mass density [kg/m3]	viscosity [mPa·s]
278.15 K	884.8	14.34
283.15 K	881.1	11.97
288.15 K	877.5	10.13
293.15 K	873.8	8.667
298.15 K	870.2	7.488
303.15 K	866.6	6.528
308.15 K	863	5.738
313.15 K	859.5	5.08
318.15 K	855.9	4.529
323.15 K	852.3	4.062
328.15 K	848.8	3.665
333.15 K	845.2	3.323
338.15 K	841.7	3.028
343.15 K	838.2	2.771
348.15 K	834.6	2.546
353.15 K	831.1	2.348
358.15 K	827.6	2.174
363.15 K	824.1	2.019
368.15 K	820.7	1.881
373.15 K	817.3	1.758

CCCCCCCCCCCCCCCCCCCC(=O)OCC [ethyl eicosanoate]
Conditions	mass density [kg/m3]	viscosity [mPa·s]
318.15 K	841.2	5.657
323.15 K	837.7	4.973
328.15 K	834.1	4.507
333.15 K	830.5	4.058
338.15 K	827	3.671
343.15 K	823.5	3.337
348.15 K	820	3.046
353.15 K	816.6	2.78
358.15 K	813.2	2.569
363.15 K	809.7	2.372
368.15 K	806.1	2.196
373.15 K	802.4	2.039

CC/C=C\C/C=C\C/C=C\CCCCCCCC(=O)OCC [ethyl 9,12,15-octadecatrienoate]
Conditions	mass density [kg/m3]	viscosity [mPa·s]
278.15 K	904.6	6.282
283.15 K	900.8	5.538
288.15 K	897	4.921
293.15 K	893.3	4.401
298.15 K	889.5	3.961
303.15 K	885.8	3.583
308.15 K	882	3.258
313.15 K	878.3	2.975
318.15 K	874.6	2.728
323.15 K	870.9	2.511
328.15 K	867.2	2.32
333.15 K	863.5	2.151
338.15 K	859.9	2
343.15 K	856.2	1.866
348.15 K	852.5	1.745
353.15 K	848.9	1.636
358.15 K	845.3	1.538
363.15 K	841.6	1.449
368.15 K	838	1.368
373.15 K	834.5	1.295

CCCCCC/C=C\CCCCCCCC(=O)OC [methyl (Z)-9-hexadecenoate]
Conditions	mass density [kg/m3]	viscosity [mPa·s]
278.15 K	880.4	6.169
283.15 K	876.6	5.367
288.15 K	872.8	4.662
293.15 K	869	4.107
298.15 K	865.2	3.647
303.15 K	861.4	3.289
308.15 K	857.6	2.943
313.15 K	853.8	2.616
318.15 K	850	2.422
323.15 K	846.3	2.175
328.15 K	842.5	2.03
333.15 K	838.7	1.87
338.15 K	834.9	1.728
343.15 K	831.1	1.595
348.15 K	827.3	1.482
353.15 K	823.5	1.366
358.15 K	819.8	1.29
363.15 K	816	1.207

CCCCCCCCCCCCCCCCCCCC(=O)OC [methyl eicosanoate]
Conditions	mass density [kg/m3]	viscosity [mPa·s]
323.15 K	842.3	4.832
328.15 K	838.7	4.323
333.15 K	834.9	3.889
338.15 K	831.4	3.517
343.15 K	827.8	3.196
348.15 K	824.3	2.918
353.15 K	820.8	2.674
358.15 K	817.3	2.461
363.15 K	813.8	2.273
368.15 K	810.4	2.107
373.15 K	807	1.959
